The nature of data set [1]: Histopathology of pancreatic tissue of Example 3: total cross-sectional area and cicatrized area. It is filed as in vivo, male WBN/Kob rats. The following applies: doses of Example 3. Here is the method: The measurement of the cicatrized area may also be carried out by conventional procedures. More specifically, male WBN/Kob rats are used as models of spontaneous chronic pancreatitis and are fed with a powdered feed admixed with a test compound. The pancreas of each animal is then totally enucleated. Its weight is measured and also the cicatrized area is measured relative to the total cross-sectional area of the pancreas tissue sliced by an image analyser.
(§1) The procedure described in Example 2 was repeated, except that the test compound was pioglitazone ("the pioglitazone group"), BRL-49653 ("the BRL-49653 group"), or Compound A ("the Compound A group").
In order to evaluate the results of Example 2 histopathologically, each pancreas used for weight measurement in Example 2 was fixed in 10% neutral formalin. It was then divided into a spleen side half and a duodenum side half, and each half was sliced at 3 mm intervals to provide cross-sectional tissue pieces. All of these tissue pieces were subjected to paraffin sectioning by conventional procedures and then to hematoxylin-eosin staining and Masson's trichrome staining to prepare two tissue preparations, which were used for histopathological examination. The total cross-sectional area of the pancreatic tissue piece on each preparation was measured using an image analyser (SPICCAII, manufactured by Olympus Optical Co., Ltd.).
In addition, the surface area of the zone which had undergone degeneration and necrosis and in which the exocrine pancreatic tissue was replaced with connective tissue (the cicatrized area) was measured using an image analyser.
In order to evaluate the results of Example 3 histopathologically, the total cross-sectional area and cicatrized area of each pancreas whose weight was measured in Example 3 was measured by the procedure described in Example 4.

Data set [2] can be described thus: Suppression of the decrease in the pancreatic weight in a model of spontaneous chronic pancreatitis. It is filed as in vivo, male WBN/Kob rats. The following applies: in feed: pioglitazone 0.05% (25 mg/kg/day), BRL-49653 0.005% (2.5), Compound A 0.005% (3.0); three months; normal 1152 ± 43, control 680 ± 26; ***p < 0.001 (pioglitazone, BRL-49653), **p < 0.01 (Compound A).
From the text: The test animals were male WBN/Kob rats, which are commonly used as models of spontaneous chronic pancreatitis and suffer pancreatic weight loss and dysfunction of the exocrine pancreatic tissue due to degeneration and necrosis of the pancreatic parenchyma and its replacement by connective tissue [Tsuchitani et al., Laboratory Animals, 19(3), 200-207, (1985)]. Each group of test animals contained 4 animals, and the animals were used for the experiment when they had reached 12 weeks old. The animals were fed with powdered feed F2 mixed with 0.2% of troglitazone for three months. This group is hereinafter referred to as "the treated group". The average dose of the compound during this period was 140 mg/kg/day. Meanwhile, another four rats (control group) were fed with the powdered feed F2 only. After the rats had been fed with the feeds for three months, the pancreas of each animal was totally enucleated and its weight was measured.
as §1

Data set [3] in a line: Acute toxicity. The data set is classed as in vivo, ddY mice (male). The following applies: oral dose of 300 mg/kg or more. Here is the method: Acute toxicity was assayed by conventional procedures. […] At the end of this time, the animals were all alive. When the acute toxicities of Compounds No. 2, 3, 4 and 10 were measured in the same manner, the mice were all alive after an oral dose of 300 mg/kg or more.

The mark [4] stands for this setting: duodenum side, control 5.52 ± 0.86, **p < 0.01 all three.
Where [5] appears, read: duodenum side, control 90.3 ± 14.9.
The mark [6] stands for this setting: spleen side pancreatic half, control 8.11 ± 0.76, *p < 0.05 pioglitazone, **p < 0.01 Compound A.
Setting [7] is: spleen side pancreatic half, control 99.3 ± 9.8, **p < 0.01 pioglitazone, *p < 0.05 BRL-49653.

Molecules are shown by their SMILES.

Regarding `CN(CCOc1ccc(CC2SC(=O)NC2=O)cc1)c1ccccn1` (stereo not shown) [BRL-49653, 5-[4-{2-[N-Methyl-N-(pyridin-2-yl)amino]ethoxy}benzyl]-thiazolidine-2,4-dione], the “Cicatrized area in the exocrine pancreatic tissue” value (shortened to “Cicatrized area”) in data set [1] (setting [4]) is recorded as 1.21 ± 0.40 mm^2; in data set [1] (setting [6]), 5.40 ± 1.35 mm^2. The “Total cross-sectional area of pancreatic tissue piece” value (“Total cross-sectional area” for short) is 100.9 ± 2.1 mm^2 in data set [1] (setting [5]) and 147.2 ± 14.2 mm^2 in data set [1] (setting [7]). For the same compound, the Pancreatic weight in data set [2] amounted to 976 ± 51 mg.

On to `CC(=NOCCOc1ccc(CC2SC(=O)NC2=O)cc1)c1ccc(-c2ccccn2)cc1` (stereo not shown) [Compound A, 5-(4-{2-[1-(4-2'-pyridylphenyl)ethylideneaminooxy]ethoxy}-benzyl)thiazolidine-2,4-dione], for which the results for the “Cicatrized area” value in data set [1] (setting [4]) and in data set [1] (setting [6]) were 1.17 ± 0.15 mm^2 and 2.62 ± 0.51 mm^2, respectively. Also, the “Total cross-sectional area” value in data set [1] (setting [5]) worked out at 90.3 ± 10.2 mm^2; in data set [1] (setting [7]) it was 100.8 ± 12.5 mm^2. Further, the Pancreatic weight in data set [2] was 853 ± 44 mg.

On to `CCc1ccc(CCOc2ccc(CC3SC(=O)NC3=O)cc2)nc1` (stereo not shown) [Pioglitazone, 5-{4-[2-(5-Ethylpyridin-2-yl)ethoxy]benzyl}thiazolidine-2,4-dione], for which the “Cicatrized area” value in data set [1] (setting [4]) is 1.12 ± 0.26 mm^2; in data set [1] (setting [6]), 4.98 ± 1.03 mm^2. For the same compound, the “Total cross-sectional area” value stood at 122.0 ± 9.8 mm^2 in data set [1] (setting [5]) and 157.8 ± 16.1 mm^2 in data set [1] (setting [7]). Further, the Pancreatic weight in data set [2] came out at 982 ± 52 mg.

On to `Cc1c(C)c2c(c(C)c1O)CCC(COc1ccc(CC3SC(=O)NC3=O)cc1)O2` (stereo not shown) [compound 2], for which, in data set [3], the “Survival (acute toxicity)” value is reported as “all alive”.

Take `CC1(COc2ccc(CC3SC(=O)NC3=O)cc2)CCc2cc(O)ccc2O1` (stereo not shown) [compound 3]: the “Survival (acute toxicity)” value in data set [3] is reported as “all alive”.

For `CC1(COc2ccc(CC3SC(=O)NC3=O)cc2)CCc2cc(O)c(C(C)(C)C)cc2O1` (stereo not shown) [compound 4, 5-[4-(6-Hydroxy-2-methyl-7-t-butylchroman-2-ylmethoxy)benzyl]thiazolidine-2,4-dione], in data set [3], the “Survival (acute toxicity)” value was “all alive”.

Take `CCOC(=O)Oc1c(C)c(C)c2c(c1C)CCC(C)(COc1ccc(CC3SC(=O)NC3=O)cc1)O2` (stereo not shown) [compound 10, 5-[4-(6-Ethoxycarbonyloxy-2,5,7,8-tetramethylchroman-2-ylmethoxy)benzyl]-thiazolidine-2,4-dione]: the “Survival (acute toxicity)” value in data set [3] is listed as “all alive”.
